This passage reports GI50 results from patent US20260265190A1, “AROMATIC COMPOUNDS FOR USE AS PROTEIN PHOSPHATASE 2A (PP2A) MODULATORS” (RAPPTA THERAPEUTICS OY, priority 2022, published 2026).

By GI50 is commonly meant the concentration giving 50% growth inhibition.

The subject of the assay is HCC1937 cells. Kind of assay: Cell viability assay (MTS), HCC1937 cell line. Particulars: Homo sapiens, HCC1937 cell line (footnote a), 48 hours. In kind it is cell-based. As for the experimental part:
HCC1937 cells are plated in a 96 well plate format at a density of 10,000 cells per well. After incubation overnight, cells are treated with a compound (e.g., compound 5) at the following concentrations: 80, 40, 20, 10, 5, 2.5, 1.25 μM. Compound concentrations are prepared in RPMI via serial dilutions from a starting stock of 80 mM. Forty-eight (48) hours after compound treatment, cell viability is assessed using the Promega CellTiter 96 aqueous one proliferation assay (Promega G3582, MTS assay) according to manufacturer's protocol.
The cell viability data was analyzed with GraphPad Prism software. The values were log transformed and analyzed with non-linear regression (curve-fit) using log (inhibitor) vs. response—variable slope (four parameters) and constraining the bottom to equal zero. Unless otherwise indicated, the GI50 values provided in Table 1 correspond to the LNCaP cell viability assays.
The compound `O=S(=O)(N[C@H](c1ccc(Cl)cn1)C1CCNCC1)c1ccc(OC(F)(F)F)cc1` [Example 15, (S)-N-((5-chloropyridin-2-yl)(piperidin-4-yl)methyl)-4-(trifluoromethoxy)benzenesulfonamide] gave a GI50 of 48.7 µM.
Compound `CC(C)Oc1ccc(S(=O)(=O)N[C@@H](c2ccccc2)C2CCNCC2)cn1` [Example 18, (R)-6-isopropoxy-N-(phenyl(piperidin-4-yl)methyl)pyridine-3-sulfonamide] returned a concentration for 50% growth inhibition (GI50) of 74.3 µM.
For `CC(C)Oc1ccc(S(=O)(=O)NC2(c3ccc(Cl)cn3)CCNCC2)cn1` [Example 5, N-(4-(5-chloropyridin-2-yl)piperidin-4-yl)-6-isopropoxypyridine-3-sulfonamide] the value was 51.4 µM.
